From patent US8119681B2, “2-[1-phenyl-5-hydroxy or methoxy-4alpha-methyl-hexahydrocyclopenta [ƒ]indazole-5-YL]ethyl phenyl derivatives as glucocorticoid receptor ligands” (Merck Sharp & Dohme Corp., priority 2006, dated 2012)

Target: T1, glucocorticoid receptor (GR) (Homo sapiens, UniProt P04150)
T1 construct: endogenous in cells; host or cells: HeLa (ATCC) cell lysate supernatant
T1 sequence (P04150 1-777): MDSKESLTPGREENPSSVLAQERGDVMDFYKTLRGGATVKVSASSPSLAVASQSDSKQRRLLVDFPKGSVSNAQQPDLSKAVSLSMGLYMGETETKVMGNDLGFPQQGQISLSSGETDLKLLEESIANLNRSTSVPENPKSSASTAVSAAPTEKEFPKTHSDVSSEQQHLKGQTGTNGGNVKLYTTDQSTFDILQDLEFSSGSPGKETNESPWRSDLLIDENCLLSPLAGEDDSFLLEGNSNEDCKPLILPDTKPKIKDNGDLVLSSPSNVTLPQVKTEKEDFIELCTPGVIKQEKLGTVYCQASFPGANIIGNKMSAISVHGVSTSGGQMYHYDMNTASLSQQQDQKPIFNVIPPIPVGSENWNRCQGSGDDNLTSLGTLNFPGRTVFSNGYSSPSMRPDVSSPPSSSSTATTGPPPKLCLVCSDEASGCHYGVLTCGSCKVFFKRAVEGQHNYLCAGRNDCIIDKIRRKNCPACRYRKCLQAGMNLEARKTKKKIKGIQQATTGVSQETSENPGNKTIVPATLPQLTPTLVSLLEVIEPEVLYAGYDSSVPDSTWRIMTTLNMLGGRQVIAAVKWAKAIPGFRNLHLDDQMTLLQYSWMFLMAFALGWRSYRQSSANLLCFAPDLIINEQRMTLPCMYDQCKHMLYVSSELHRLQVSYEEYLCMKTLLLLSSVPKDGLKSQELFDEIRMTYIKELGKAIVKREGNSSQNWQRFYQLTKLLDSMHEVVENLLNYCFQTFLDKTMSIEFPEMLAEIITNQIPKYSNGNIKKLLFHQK
Test: Ligand binding assay (GR BIND), 3H-dexamethasone displacement, HeLa cell lysate
Protocol: Binding Buffer: TEGM (10 mM Tris-HCl, 1 mM EDTA, 10% glycerol, 1 mM beta-mercaptoethanol, 10 mM Sodium Molybdate, pH 7.2)
50% HAP Slurry: Calbiochem Hydroxylapatite, Fast Flow, in 10 mM Tris, pH 8.0 and 1 mM EDTA.
Wash Buffer: 40 mM Tris, pH7.5, 100 mM KCl, 1 mM EDTA and 1 mM EGTA.
Dexmethasone-methyl-^3H, (DEX*); (Amersham cat# TRK645)
Dexamethasone (DEX) (Sigma, cat# D1756):
Phenol red-free Trypsin-EDTA is diluted in the same PBS 1:10. The cell layers are rinsed with 1× Trypsin, extra Trypsin is poured out, and the cell layers are incubated at 37° C. for ˜2 min. The flask is tapped and checked for signs of cell detachment. Once the cells begin to slide off the flask, the complete media is added. The cells are counted at this point, then diluted to the appropriate concentration and split into flasks or dishes for further culturing (Usually 1:3 to 1:6 dilution).
Preparation of Hela Cell Lysate
The cell pellet is washed twice with TEGM (10 mM Tris-HCl, 1 mM EDTA, 10% glycerol, 1 mM beta-mercaptoethanol, 10 mM Sodium Molybdate, pH 7.2). After the final wash, the cells are resuspended in TEGM at a concentration of 10^7 cells/mL. The cell suspension is snap frozen in liquid nitrogen or ethanol/dry ice bath and transferred to −80° C. freezer on dry ice. Before setting up the binding assay, the frozen samples are left on ice-water to just thaw (˜1 hr). Then the samples are centrifuged at 12,500 g to 20,000 g for 30 min at 4° C. The supernatant is used to set-up assay right away. If using 50 μL of supernatant, the test compound can be prepared in 50 μL of the TEGM buffer.
Procedure for Multiple Compound Screening
1×TEGM buffer is prepared, and the isotope-containing assay mixture is prepared in the following order: EtOH (2% final concentration in reaction), 3H-DEX (Amersham Biosciences) and 1×TEGM. [e.g. For 100 samples, 200 μL (100×2) of EtOH+4.25 μL of 1:10 ^3H-Dex stock+2300 μL (100×23) 1×TEGM]. The compound is serially diluted, e.g., if starting final conc. is 1 μM, and the compound is in 25 μL of solution, for duplicate samples, 75 μL of 4×1 μM solution is made and 3 μL of 100 μM is added to 72 μL of buffer, and 1:5 serial dilution.
25 μL of ^3H-DEX (6 nM) trace and 25 μL compound solution are first mixed together, followed by addition of 50 μL receptor solution. The reaction is gently mixed, spun briefly at about 200 rpm and incubated at 4° C. overnight. 100 μL of 50% HAP slurry is prepared and added to the incubated reaction which is then vortexed and incubated on ice for 5 to 10 minutes. The reaction mixture is vortexed twice more to resuspend HAP while incubating reaction. The samples in 96-well format are then washed in wash buffer using The FilterMate™ Universal Harvester plate washer (Packard). The washing process transfers HAP pellet containing ligand-bound expressed receptor to Unifilter-96 GF/B filter plate (Packard). The HAP pellet on the filter plate is incubated with 50 μL of MICROSCINT (Packard) scintillant for 30 minutes before being counted on the TopCount microscintillation counter (Packard). IC50s are calculated using DEX as a reference.

[1] = Table 1, HeLa cell lysate, 3H-DEX

Row | Compound | Ki [1] [nM] | Ki (Table 2, prior-art comparison compounds) [nM]
1 | CC(C)(C)NC(=O)c1c(F)cccc1CC[C@]1(O)CCC2=Cc3c(cnn3-c3ccc(F)cc3)C[C@@]21C [Example 59, N-(tert-butyl)-2-fluoro-6-{2-[(4αS,5R)-1-(4-fluorophenyl)-5-hydroxy-4α-methyl-1,4,4α,5,6,7-hexahydrocyclopenta[f]indazol-5-yl]ethyl}benzamide] | 1.83 | –
2 | CC(C)CNC(=O)c1c(F)cccc1CC[C@]1(O)CCC2=Cc3c(cnn3-c3ccc(F)cc3)C[C@@]21C [Example 61, 2-fluoro-6-{2-[(4αS,5R)-1-(4-fluorophenyl)-5-hydroxy-4α-methyl-1,4,4α,5,6,7-hexahydrocyclopenta[f]indazol-5-yl]ethyl}-N-isobutylbenzamide] | 0.58 | –
3 | CC(C)(C)NC(=O)c1ccccc1CC[C@]1(O)CCC2=Cc3c(cnn3-c3ccc(F)cc3)C[C@@]21C [Example 62, N-(tert-butyl)-2-{2-[(4αS,5R)-1-(4-fluorophenyl)-5-hydroxy-4α-methyl-1,4,4α,5,6,7-hexahydrocyclopenta[f]indazol-5-yl]ethyl}benzamide] | 9.58 | –
4 | C[C@]12Cc3cnn(-c4ccc(F)cc4)c3C=C1CC[C@@]2(O)CCc1ccccc1F [Example 70 WO 2004/075840 A2, reference compound] | – | 2.95
5 | CC(C)S(=O)(=O)NCc1c(F)cccc1CC[C@]1(O)CCC2=Cc3c(cnn3-c3ccc(F)cc3)C[C@@]21C [Example 83, N-(2-fluoro-6-{2-[(4αS,5R)-1-(4-fluorophenyl)-5-hydroxy-4α-methyl-1,4,4α,5,6,7-hexahydrocyclopenta[f]indazol-5-yl]ethyl}benzyl)propane-2-sulfonamide] | 0.56 | –
6 | CCS(=O)(=O)NCc1c(F)cccc1CC[C@]1(O)CCC2=Cc3c(cnn3-c3ccc(F)cc3)C[C@@]21C [Example 84, N-(2-fluoro-6-{2-[(4αS,5R)-1-(4-fluorophenyl)-5-hydroxy-4α-methyl-1,4,4α,5,6,7-hexahydrocyclopenta[f]indazol-5-yl]ethyl}benzyl)ethanesulfonamide] | 0.62 | –
7 | C[C@]12Cc3cnn(-c4ccc(F)cc4)c3C=C1CC[C@@]2(O)CCc1cccc(F)c1CNS(=O)(=O)C(Cl)Cl [Example 85, 1,1-dichloro-N-(2-fluoro-6-{2-[(4αS,5R)-1-(4-fluorophenyl)-5-hydroxy-4α-methyl-1,4,4α,5,6,7-hexahydrocyclopenta[f]indazol-5-yl]ethyl}benzyl)methanesulfonamide] | 0.31 | –
8 | C[C@]12Cc3cnn(-c4ccc(F)cc4)c3C=C1CC[C@@]2(O)CCc1cccc(F)c1CNS(=O)(=O)CC(F)(F)F [Example 86, 2,2,2-trifluoro-N-(2-fluoro-6-{2-[(4αS,5R)-1-(4-fluorophenyl)-5-hydroxy-4α-methyl-1,4,4α,5,6,7-hexahydrocyclopenta[f]indazol-5-yl]ethyl}benzyl)ethanesulfonamide] | 0.51 | –
9 | C[C@]12Cc3cnn(-c4ccc(F)cc4)c3C=C1CC[C@@]2(O)CCc1cccc(F)c1CNS(=O)(=O)C1CC1 [Example 88, N-(2-fluoro-6-{2-[(4αS,5R)-1-(4-fluorophenyl)-5-hydroxy-4α-methyl-1,4,4α,5,6,7-hexahydrocyclopenta[f]indazol-5-yl]ethyl}benzyl)cyclopropanesulfonamide] | 0.57 | –
10 | CN(C)S(=O)(=O)NCc1c(F)cccc1CC[C@]1(O)CCC2=Cc3c(cnn3-c3ccc(F)cc3)C[C@@]21C [Example 89, N′-(2-fluoro-6-{2-[(4αS,5R)-1-(4-fluorophenyl)-5-hydroxy-4α-methyl-1,4,4α,5,6,7-hexahydrocyclopenta[f]indazol-5-yl]ethyl}benzyl)-N,N-dimethylsulfamide] | 0.4 | –
11 | C[C@]12Cc3cnn(-c4ccc(F)cc4)c3C=C1CC[C@@]2(O)CCc1ccccc1C1(NS(=O)(=O)C2CC2)CC1 [Example 91, N-[1-(2-{2-[(4αS,5R)-1-(4-fluorophenyl)-5-hydroxy-4α-methyl-1,4,4α,5,6,7-hexahydrocyclopenta[f]indazol-5-yl]ethyl}phenyl)cyclopropyl]cyclopropanesulfonamide] | 0.26 | –
12 | C[C@]12Cc3cnn(-c4ccc(F)cc4)c3C=C1CC[C@@]2(O)CCc1ccccc1CC(N)=O [Example 107, 2-(2-{2-[(4αS,5R)-1-(4-fluorophenyl)-5-hydroxy-4α-methyl-1,4,4α,5,6,7-hexahydrocyclopenta[f]indazol-5-yl]ethyl}phenyl)acetamide] | 2.32 | –

Now from value to compound:

Row | Ki [1] [nM] | Ki (Table 2, prior-art comparison compounds) [nM] | Compound
13 | 2.66 | – | CN(C)S(=O)(=O)Nc1c(F)cccc1CC[C@]1(O)CCC2=Cc3c(cnn3-c3ccc(F)cc3)C[C@@]21C [Example 113, N′-(2-fluoro-6-{2-[(4αS,5R)-1-(4-fluorophenyl)-5-hydroxy-4α-methyl-1,4,4α,5,6,7-hexahydrocyclopenta[f]indazol-5-yl]ethyl}phenyl)-N,N-dimethylsulfamide]
14 | 2.77 | – | CCS(=O)(=O)Nc1ccccc1CC[C@]1(O)CCC2=Cc3c(cnn3-c3ccc(F)cc3)C[C@@]21C [Example 114, N-(2-{2-[(4αS,5R)-1-(4-fluorophenyl)-5-hydroxy-4α-methyl-1,4,4α,5,6,7-hexahydrocyclopenta[f]indazol-5-yl]ethyl}phenyl)ethanesulfonamide]
15 | 0.84 | – | CN(C)S(=O)(=O)c1ccccc1CC[C@]1(O)CCC2=Cc3c(cnn3-c3ccc(F)cc3)C[C@@]21C [Example 138, 2-{2-[(4αS,5R)-1-(4-fluorophenyl)-5-hydroxy-4α-methyl-1,4,4α,5,6,7-hexahydrocyclopenta[f]indazol-5-yl]ethyl}-N,N-dimethylbenzenesulfonamide]
16 | 1.44 | – | CCS(=O)(=O)c1ccccc1CC[C@]1(O)CCC2=Cc3c(cnn3-c3ccc(F)cc3)C[C@@]21C [Example 143, (4αS,5R)-5-{2-[2-(ethylsulfonyl)phenyl]ethyl}-1-(4-fluorophenyl)-4α-methyl-1,4,4α,5,6,7-hexahydrocyclopenta[f]indazol-5-ol]
17 | 1.32 | – | C[C@]12Cc3cnn(-c4ccc(F)cc4)c3C=C1CC[C@@]2(O)CCc1ccccc1S(=O)(=O)C1CC1 [Example 144, (4αS,5R)-5-{2-[2-(cyclopropylsulfonyl)phenyl]ethyl}-1-(4-fluorophenyl)-4α-methyl-1,4,4α,5,6,7-hexahydrocyclopenta[f]indazol-5-ol]
18 | 0.67 | – | C[C@]12Cc3cnn(-c4ccc(F)cc4)c3C=C1CC[C@@]2(O)CCc1cccc(F)c1CO [Example 148, (4αS,5R)-5-{2-[3-fluoro-2-(hydroxymethyl)phenyl]ethyl}-1-(4-fluorophenyl)-4α-methyl-1,4,4α,5,6,7-hexahydrocyclopenta[f]indazol-5-ol]
